Patent US20080182848A1, “Novel Process” (priority 2005, published 2008)

Test: solubility in the mobile phase (isopropanol)
Format: physicochemical
Settings: organic solvent or mixture; crude material; isopropanol as the mobile phase
Protocol: Racemic zopiclone was subjected to preparative chromatography using Chiralcel® OD as the stationery phase and isopropanol as the mobile phase. Under these conditions the crude material has a good solubility in the mobile phase (>1.0 g/liter) and the typical retention time for the R-isomer is 12.3 minutes and for the S-isomer is 17.8 minutes. Some physico-chemical properties of the S-zopiclone obtained are set out in table 1.

**Q.** Which solubility does the source give for CN1CCN(C(=O)OC2c3nccnc3C(=O)N2c2ccc(Cl)cn2)CC1 (racemic) [Racemic zopiclone, (±) of 6-(5-chloro-2-pyridinyl)-6,7-dihydro-7-oxo-5H-pyrrolo-[3,4b]-pyrazin-5-yl-4-methylpiperazine-1-caboxylate] here?
**A.** Its solubility is greater than 1000 µg/mL.
